Results from ChEMBL document CHEMBL4613237, “A novel phytosterol isolated from Datura inoxia, RinoxiaB is a potential cure colon cancer agent by targeting BAX/Bcl2 pathway” (Bioorg Med Chem, 2020).
Activity calls are given as the source filed them. The calls are words filed in the database; no cut-off is given here.

Tests used:
[1] = tested on: HCT-15; experiment: Antiproliferative activity against human HCT15 cells assessed as reduction in cell viability after 24 hrs by MTT assay; assay type: functional, cell-based
[2] = tested on: HCT-15; experiment: Antiproliferative activity against human HCT15 cells at 4 uM after 24 hrs by MTT assay relative to control; assay type: functional; conditions: HCT-15, 24 h
[3] = tested on: HCT-15; experiment: Induction of morphological changes in human HCT15 cells assessed as formation of spherical bodies at 4 to 10 uM after 24 hrs by inverted light microscopic analysis; assay type: functional, cell-based
[4] = tested on: HCT-15; experiment: Induction of morphological changes in human HCT15 cells assessed as membrane blebbing at 4 to 10 uM after 24 hrs by inverted light microscopic analysis; assay type: functional, cell-based
[5] = tested on: HCT-15; experiment: Induction of morphological changes in human HCT15 cells assessed as lack of colony forming ability at 4 to 10 uM after 24 hrs by inverted light microscopic analysis; assay type: functional, cell-based
[6] = tested on: HCT-15; experiment: Induction of morphological changes in human HCT15 cells assessed as cell shrinkage after 24 hrs by inverted light microscopic analysis; assay type: functional, cell-based
[7] = tested on: HCT-15; experiment: Induction of nuclear morphological changes in human HCT15 cells assessed as increase in propidium iodide positive cells at 4 to 10 uM after 24 hrs by PI-staining based fluorescence microscopic analysis; assay type: functional, cell-based
[8] = tested on: HCT-15; experiment: Induction of cell cycle arrest in human HCT15 cells assessed as accumulation of cells at G0/G1 phase at 4 uM after 24 hrs by propidium iodide staining based flow cytometry (reference value: 77.48%); assay type: functional
[9] = tested on: HCT-15; experiment: Induction of cell cycle arrest in human HCT15 cells assessed as accumulation of cells at S phase at 4 uM after 24 hrs by propidium iodide staining based flow cytometry (reference value: 8.73%); assay type: functional
[10] = tested on: HCT-15; experiment: Induction of cell cycle arrest in human HCT15 cells assessed as accumulation of cells at G2/M phase at 4 uM after 24 hrs by propidium iodide staining based flow cytometry (reference value: 13.77%); assay type: functional
[11] = tested on: HCT-15; experiment: Induction of cell cycle arrest in human HCT15 cells assessed as accumulation of cells at G0/G1 phase at 10 uM after 24 hrs by propidium iodide staining based flow cytometry (reference value: 77.48%); assay type: functional
[12] = tested on: HCT-15; experiment: Induction of cell cycle arrest in human HCT15 cells assessed as accumulation of cells at S phase at 10 uM after 24 hrs by propidium iodide staining based flow cytometry (reference value: 8.73%); assay type: functional
[13] = tested on: HCT-15; experiment: Induction of cell cycle arrest in human HCT15 cells assessed as accumulation of cells at G2/M phase at 10 uM after 24 hrs by propidium iodide staining based flow cytometry (reference value: 13.77%); assay type: functional
[14] = tested on: HCT-15; experiment: Induction of apoptosis in human HCT15 cells assessed as viable cells at 4 uM after 24 hrs by annexin V-FITC and propidium iodide staining based flow cytometry (reference value: 99.93%); assay type: functional; conditions: HCT-15, 24 h, read-out: Activity
[15] = tested on: HCT-15; experiment: Induction of apoptosis in human HCT15 cells assessed as early apoptotic cells at 4 uM after 24 hrs by annexin V-FITC and propidium iodide staining based flow cytometry (reference value: 0%); assay type: functional
[16] = tested on: HCT-15; experiment: Induction of apoptosis in human HCT15 cells assessed as late apoptotic cells at 4 uM after 24 hrs by annexin V-FITC and propidium iodide staining based flow cytometry (reference value: 0%); assay type: functional
[17] = tested on: HCT-15; experiment: Induction of apoptosis in human HCT15 cells assessed as necrotic cells at 4 uM after 24 hrs by annexin V-FITC and propidium iodide staining based flow cytometry (reference value: 0.07%); assay type: functional
[18] = tested on: HCT-15; experiment: Induction of apoptosis in human HCT15 cells assessed as viable cells at 10 uM after 24 hrs by annexin V-FITC and propidium iodide staining based flow cytometry (reference value: 99.93%); assay type: functional; conditions: HCT-15, 24 h, read-out: Activity
[19] = tested on: HCT-15; experiment: Induction of apoptosis in human HCT15 cells assessed as early apoptotic cells at 10 uM after 24 hrs by annexin V-FITC and propidium iodide staining based flow cytometry (reference value: 0%); assay type: functional
[20] = tested on: HCT-15; experiment: Induction of apoptosis in human HCT15 cells assessed as late apoptotic cells at 10 uM after 24 hrs by annexin V-FITC and propidium iodide staining based flow cytometry (reference value: 0%); assay type: functional
[21] = tested on: HCT-15; experiment: Induction of apoptosis in human HCT15 cells assessed as necrotic cells at 10 uM after 24 hrs by annexin V-FITC and propidium iodide staining based flow cytometry (reference value: 0.07%); assay type: functional
[22] = tested on: HCT-15; experiment: Induction of apoptosis in human HCT15 cells assessed as increase in bax protein expression at 4 to 10 uM after 24 hrs by Western blot analysis; assay type: functional, cell-based
[23] = tested on: HCT-15; experiment: Induction of apoptosis in human HCT15 cells assessed as increase in cytochrome c protein expression at 4 to 10 uM after 24 hrs by Western blot analysis; assay type: functional, cell-based
[24] = tested on: HCT-15; experiment: Induction of apoptosis in human HCT15 cells assessed as increase in caspase-9 protein expression at 4 to 10 uM after 24 hrs by Western blot analysis; assay type: functional, cell-based
[25] = tested on: HCT-15; experiment: Induction of apoptosis in human HCT15 cells assessed as increase in caspase-3 protein expression at 4 to 10 uM after 24 hrs by Western blot analysis; assay type: functional, cell-based
[26] = tested on: HCT-15; experiment: Induction of apoptosis in human HCT15 cells assessed as reduction in bcl-2 protein expression at 4 to 10 uM after 24 hrs by Western blot analysis; assay type: functional, cell-based
[27] = tested on: HCT-15; experiment: Induction of apoptosis in human HCT15 cells assessed as upregulation of p53 protein expression after 24 hrs by Western blot analysis; assay type: functional, cell-based
[28] = tested on: HCT-15; experiment: Induction of apoptosis in human HCT15 cells assessed as upregulation of p21 protein expression after 24 hrs by Western blot analysis; assay type: functional, cell-based
[29] = tested on: HCT-15; experiment: Downregulation of cyclin D1 expression in human HCT15 cells at 4 to 10 uM after 24 hrs by Western blot anlaysis; assay type: functional, cell-based
[30] = tested on: HCT-15; experiment: Downregulation of cyclin B1 expression in human HCT15 cells at 4 to 10 uM after 24 hrs by Western blot anlaysis; assay type: functional, cell-based
[31] = tested on: HCT-15; experiment: Induction of DNA damage in human HCT15 cells assessed as comet length at 4 uM by neutral comet assay (reference value: 57 pixel); assay type: functional
[32] = tested on: HCT-15; experiment: Induction of DNA damage in human HCT15 cells assessed as head length at 4 uM by neutral comet assay (reference value: 53 pixel); assay type: functional
[33] = tested on: HCT-15; experiment: Induction of DNA damage in human HCT15 cells assessed as tail length at 4 uM by neutral comet assay (reference value: 4 pixel); assay type: functional
[34] = tested on: HCT-15; experiment: Induction of DNA damage in human HCT15 cells assessed as head DNA at 4 uM by neutral comet assay relative to control (reference value: 99.27%); assay type: functional
[35] = tested on: HCT-15; experiment: Induction of DNA damage in human HCT15 cells assessed as tail DNA at 4 uM by neutral comet assay relative to control (reference value: 0.72%); assay type: functional
[36] = tested on: HCT-15; experiment: Induction of DNA damage in human HCT15 cells assessed as tail moment at 4 uM by neutral comet assay (reference value: 0.02); assay type: functional
[37] = tested on: HCT-15; experiment: Induction of DNA damage in human HCT15 cells assessed as olive tail moment at 4 uM by neutral comet assay (reference value: 0.19); assay type: functional
[38] = tested on: HCT-15; experiment: Induction of DNA damage in human HCT15 cells assessed as comet length at 10 uM by neutral comet assay (reference value: 57 pixel); assay type: functional
[39] = tested on: HCT-15; experiment: Induction of DNA damage in human HCT15 cells assessed as head length at 10 uM by neutral comet assay (reference value: 53 pixel); assay type: functional
[40] = tested on: HCT-15; experiment: Induction of DNA damage in human HCT15 cells assessed as tail length at 10 uM by neutral comet assay (reference value: 4 pixel); assay type: functional
[41] = tested on: HCT-15; experiment: Induction of DNA damage in human HCT15 cells assessed as head DNA at 10 uM by neutral comet assay relative to control (reference value: 99.27%); assay type: functional
[42] = tested on: HCT-15; experiment: Induction of DNA damage in human HCT15 cells assessed as tail DNA at 10 uM by neutral comet assay relative to control (reference value: 0.72%); assay type: functional
[43] = tested on: HCT-15; experiment: Induction of DNA damage in human HCT15 cells assessed as tail moment at 10 uM by neutral comet assay (reference value: 0.02); assay type: functional
[44] = tested on: HCT-15; experiment: Induction of DNA damage in human HCT15 cells assessed as olive tail moment at 10 uM by neutral comet assay (reference value: 0.19); assay type: functional

With C[C@H]1C(=O)O[C@H]2C[C@]1(C)OC[C@H]2[C@H]1CC[C@H]2[C@@H]3CC=C4CC=CC(=O)[C@]4(C)[C@H]3CC[C@]12C the inhibition [1] was “Dose-dependent effect”, the IC50 ([1]; HCT-15, 24 h) was 4 µM and the inhibition at 4 µM [2] was 50.7%. For the same molecule, the Activity [3] was “Active”, the Activity [4] was “Active” and the Activity [5] was “Active”. The Activity [6] was “Dose-dependent effect”, the Activity [7] was “Active” and the Activity [8] was 66.97%. The Activity [9] was 13.34%, the Activity [10] was 19.67% and the Activity [11] was 61.24%. For the same molecule, the Activity [12] was 16.46%, the Activity [13] was 21.57% and the viability at 4 µM [14] was 21.9%. For the same molecule, the Activity [15] was 17.79%, the Activity [16] was 58.17% and the Activity [17] was 2.1%. The viability at 10 µM [18] was 14.7%, the Activity [19] was 19.48% and the Activity [20] was 63.26%. The Activity [21] was 2.57%, the Activity [22] was “Active” and the Activity [23] was “Active”. For the same molecule, the Activity [24] was “Active”, the Activity [25] was “Active” and the Activity [26] was “Active”. The Activity [27] was “Dose-dependent effect”, the Activity [28] was “Dose-dependent effect” and the inhibition [29] was “Active”. For the same molecule, the inhibition [30] was “Active”, the Activity [31] was 35 pixel and the Activity [32] was 23 pixel. The Activity [33] was 12 pixel, the Activity [34] was 54.72% and the Activity [35] was 45.27%. For the same molecule, the Activity [36] was 5.43, the Activity [37] was 5.56 and the Activity [38] was 36 pixel. It also gave an Activity [39] of 19 pixel, an Activity [40] of 17 pixel and an Activity [41] of 34.54%. It also gave an Activity [42] of 65.45%, an Activity [43] of 11.12 and an Activity [44] of 8.56.
